One data set has as its system human hepatocytes. Nature of the data set: Incubation with human hepatocytes. In kind it is in vitro ADME. The following applies: 1 μg/mL, 37° C., 0.25-60 minutes. As to the method:
(§1) The cell concentration at incubation was 1×10^6 viable cells/mL. The incubations were performed in glass tubes at 37° C. with a total incubation volume of 3.5 mL and with duplicate incubations for each test item. The 3.5 mL of hepatocyte suspension was equilibrated for 10 minutes in a water bath set to 37° C. where after the incubations were initiated by adding 3.5 μL of a stock solution of the test item in DMSO (Dimethyl sulfoxide) and gently inverting the tubes. The final solvent concentration in the incubations was 0.1% DMSO. Samples of 600 μL were withdrawn from the incubations at the pre-determined time points of 0.25, 5, 15, 30 and 60 minutes after ensuring homogeneity of hepatocyte suspensions. The withdrawn volume was added to 1 mL Nunc cryotubes on wet ice containing 60 μL of ice-cold ascorbic acid (100 mg/mL) and 30 μL of ice cold 100 mM saccharic acid 1.4-lactone in 0.5 M citric acid. The tubes were mixed and 35 μL of a solution of ice cold 20% formic acid was added. The tubes were mixed thoroughly and stored at −80° C. awaiting analysis.

Another data set has as its system rat hepatocytes. Nature of the data set: Incubation with rat hepatocytes. The format is in vitro ADME. The note with it: 1 μg/mL, 37° C., 0.25-60 minutes. As to the method:
as §1

Another data set concerns the target T1, human D1 receptor (Homo sapiens, UniProt P21728).
T1 construct: host or cells: HEK-293
Nature of the data set: Dopamine D1 receptor agonism, HTRF cAMP assay. The format is cell-based. The note with it: example 5 and table 2 (D1 and D2 assays). As to the method:
Dopamine D1 receptor agonism was measured using a HTRF cAMP from CisBio using the protocol developed by HD Biosciences (China). Briefly, the assay is a homogeneous time resolved-fluorescence resonance energy transfer (HTRF) assay that measures production of cAMP by cells in a competitive immunoassay between native cAMP produced by cells and cAMP-labeled with XL-665. A cryptate-labeled anti-cAMP antibody visualizes the tracer. The assay was performed in accordance with instructions from manufacturer.
Test compounds were added to wells of microplates (384 format). […] HTRF cAMP was measured by excitation of the donor with 337 nm laser (the “TRF light unit”) and subsequent (delay time 100 microseconds) measurement of cryptate and d2 emission at 615 nm and 665 nm over a time window of 200 microseconds with a 2000 microseconds time window between repeats/100 flashes). HTRF measurements were performed on an Envision microplate reader (PerkinElmer). The HTRF signal was calculated as the emission-ratio at 665 nm over 615 nm. The HTRF ratio readout for test compounds was normalized to 0% and 100% stimulation using control wells with DMSO-solvent or 30 μM dopamine. […]
Background: Time-resolved FRET reads energy transfer from a long-lived donor to a nearby acceptor.

Data set [1] in a line: Conversion in fresh rat blood. The format is in vitro ADME. The note with it: fresh blood 37° C., 1 μg/mL, 0-60 minutes. As to the method:
(§2) Conversion of (Id) in human blood (average of 3 donors) and rat blood (average of 45 donors) to (I) was shown in fresh blood at 37° C. spiked with 1 μg/mL of (Id). (I) was measured at 0, 5, 15, 30 and 60 minutes in isolated plasma. Analysis method and Instrumentation as described in Example 7 below in the section “Instrumentation used for analysis of compound (I) from dosing of compounds (Ic) and (Id).”

A short description of data set [2]: PK experiments in rats: plasma compound (I) after oral dosing of prodrugs. The format is in vivo, Han Wistar rats. The note with it: Wistar rats, doses equal to 287 μg/kg of compound (I). As to the method: Plasma was placed on water-ice following collection. Final storage at approximately −70° C.
Mobile phase B: Acetonitrile. […] Flow rate 0.5 mL/min.
The rats had unrestricted access to the diet.
Mobile phase B: Acetonitrile+0.2% formic acid. […] Flow rate 0.3 mL/min.
Dosing and blood sampling for compound (Ic): Han Wistar rats were supplied by Envigo, UK. […] The rats received a standard laboratory diet Teklad 2014C. The rats had unrestricted access to the diet. […] Rats were given 494 μg/kg (Ic).

The target in another data set is T2, human 5-HT2B receptor (Homo sapiens, UniProt P41595).
T2 construct: host or cells: CHO
T2 sequence (P41595 whole entry): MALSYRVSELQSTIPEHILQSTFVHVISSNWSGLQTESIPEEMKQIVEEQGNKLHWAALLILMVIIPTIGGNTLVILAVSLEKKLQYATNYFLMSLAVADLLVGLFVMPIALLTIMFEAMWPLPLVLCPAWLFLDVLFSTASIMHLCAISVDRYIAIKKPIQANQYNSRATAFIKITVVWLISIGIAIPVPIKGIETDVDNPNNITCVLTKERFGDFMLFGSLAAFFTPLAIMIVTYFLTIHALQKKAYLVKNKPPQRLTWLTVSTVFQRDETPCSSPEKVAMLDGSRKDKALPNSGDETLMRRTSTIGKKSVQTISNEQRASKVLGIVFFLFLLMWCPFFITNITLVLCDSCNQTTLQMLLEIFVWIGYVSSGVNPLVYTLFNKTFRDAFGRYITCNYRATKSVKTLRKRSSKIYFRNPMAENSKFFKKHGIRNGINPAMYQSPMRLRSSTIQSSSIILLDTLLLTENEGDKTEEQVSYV
Description: 5-HT2B agonist activity assay (IP1 production, HTRF). The format is cell-based. The note with it: example 6 and Table 2. As to the method: Evaluation of the agonist activity of compounds (I), (Ia), (Ib), (Ic) and (Id) at the human 5-HT2B receptor was performed by Eurofins/Cerep (France) measuring the compound effects on inositol monophosphate (IP1) production using the HTRF detection method. Briefly, the human 5-HT2B receptor was expressed in transfected CHO cells. The cells were suspended in a buffer containing 10 mM Hepes/NaOH (pH 7.4), 4.2 mM KCl, 146 mM NaCl, 1 mM CaCl2, 0.5 mM MgCl2, 5.5 mM glucose and 50 mM LiCl, then distributed in microplates at a density of 4100 cells/well and incubated for 30 minutes at 37° C. in the presence of buffer (basal control), test compound or reference agonist. For stimulated control measurement, separate assay wells contained 1 μM 5-HT. Following incubation, the cells were lysed and the fluorescence acceptor (fluorophen D2-labeled IP1) and fluorescence donor (anti-IP1 antibody labeled with europium cryptate) were added. After 60 minutes at room temperature, the fluorescence transfer was measured at lambda (Ex) 337 nm and lambda (Em) 620 and 665 nm using a microplate reader (Rubystar, BMG). The IP1 concentration was determined by dividing the signal measured at 665 nm by that measured at 620 nm (ratio). The results were expressed as a percent of the control response to 1 μM 5-HT. The standard reference agonist was 5-HT, which was tested in each experiment at several concentrations to generate a concentration-response curve from which its EC50 value is calculated as described above for dopamine functional assays.

Data set [3] can be described thus: Conversion in fresh human blood. In kind it is in vitro ADME. The following applies: fresh blood 37° C., 1 μg/mL, 0-60 minutes. As to the method:
as §2

Each structure is given as a SMILES string.

T1 sequence (P21728 whole entry): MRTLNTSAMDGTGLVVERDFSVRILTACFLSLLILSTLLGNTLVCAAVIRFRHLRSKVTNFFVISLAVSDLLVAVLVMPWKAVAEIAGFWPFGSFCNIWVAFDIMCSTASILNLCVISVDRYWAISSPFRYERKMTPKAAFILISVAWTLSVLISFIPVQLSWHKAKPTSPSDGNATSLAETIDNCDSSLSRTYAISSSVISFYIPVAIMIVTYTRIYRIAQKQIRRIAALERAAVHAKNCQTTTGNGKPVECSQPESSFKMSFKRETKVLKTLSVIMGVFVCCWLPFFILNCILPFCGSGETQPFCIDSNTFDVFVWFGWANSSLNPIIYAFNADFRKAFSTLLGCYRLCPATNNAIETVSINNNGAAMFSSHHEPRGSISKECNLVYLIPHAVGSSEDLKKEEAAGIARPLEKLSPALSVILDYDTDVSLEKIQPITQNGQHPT

Regarding `CCCN1CCC[C@@H]2Cc3c(ccc(O)c3O[C@@H]3O[C@H](C(=O)O)[C@@H](O)[C@H](O)[C@H]3O)C[C@H]21` [compound (Id), (2S,3S,4S,5R,6S)-3,4,5-trihydroxy-6-(((4aR,10aR)-7-hydroxy-1-propyl-1,2,3,4,4a,5,10,10a-octahydrobenzo[g]quinolin-6-yl)oxy)tetrahydro-2H-pyran-2-carboxylic acid], in the data set with human hepatocytes, the “Conversion of (Id) to compound (I) in human hepatocytes” value is “time dependent conversion”. Besides, the “Conversion of (Id) to compound (I) in rat hepatocytes” value in the data set on rat hepatocytes is recorded as “time dependent conversion”. Besides, the “In vitro dopaminergic activity (in words)” value at human D1 receptor is recorded as “no in vitro dopaminergic activity”. In data set [1], the “Conversion of (Id) to compound (I) in rat blood” value was “time dependent conversion”. Besides, the “Plasma profile of compound (I) after oral dosing of the prodrug (in words)” value in data set [2] is “slower absorption rate avoiding rapid peak concentrations”. On human 5-HT2B receptor, the “5-HT2B receptor agonism (in words)” value is recorded as “not a 5-HT2B agonists”. The “Conversion of (Id) to compound (I) in human blood” value in data set [3] was “time dependent conversion”.

(Values after patent US11827665B2, “Process for the manufacture of (2S,3S,4S,5R,6S)-3,4,5-trihydroxy-6-(((4AR,10AR)-7-hydroxy-1-propyl-1,2,3,4,4A,5,10,10A-octahydrobenzo[g]quinolin-6-yl)oxy)tetrahydro-2H-pyran-2-carboxylic acid” (H. Lundbeck A/S, priority 2019, dated 2023).)
